# Reference: patent US20090131431A1, “Pyrazolo[3,4-b]pyridine compounds, and their use as a PDE4 inhibitors” (priority 2005, published 2009)
# Counter-ions that a name gives are not always drawn.
# Molecular target: T1, PDE4B (human recombinant) (Homo sapiens, UniProt Q07343)
# T1 construct: made in house
# Test: Inhibition of PDE4B activity: SPA and/or Fluorescence Polarisation (FP) assay
# Assay type: biochemical
# Conditions: one reading (n=1) or average of 2 or more readings, read-out: PDE4B pIC50 (±about 0.5) (converted)
# Description: The ability of compounds to inhibit catalytic activity at PDE4B or 4D (human recombinant), PDE3 (from bovine aorta), PDE5 (human recombinant) or PDE6 (from bovine retina) can optionally be determined by Scintillation Proximity Assay (SPA) in a 96-well format.
# The enzyme concentration is adjusted so that no more than 20% hydrolysis of the substrate defined below occurs in control wells without compound, during the incubation. For the PDE3, PDE4B and PDE4D assays, [5′,8-3H]Adenosine 3′,5′-cyclic phosphate (Amersham Pharmacia Biotech, code TRK.559; or Amersham Biosciences UK Ltd, Pollards Wood, Chalfont St Giles, Buckinghamshire HP8 4SP, UK) is added to give 0.05 uCi per well and about 10 nM final concentration. […] Plates containing assay mixture, suitably approx. 100 ul volume of assay mixture, are mixed on an orbital shaker for 5 minutes and incubated at ambient temperature for 1 hour. Phosphodiesterase SPA beads (Amersham Pharmacia Biotech, code RPNQ 0150) are added (about 1 mg per well) to terminate the assay. Plates are sealed and shaken and allowed to stand at ambient temperature for 35 minutes to 1 hour (suitably 35 minutes) to allow the beads to settle. […] Curves are analysed using ActivityBase and XLfit (ID Business Solutions Limited, 2 Ocean Court, Surrey Research Park, Guildford, Surrey GU2 7QB, United Kingdom). Results are expressed as pIC50 values.
# The ability of compounds to inhibit catalytic activity at PDE4B (human recombinant) or PDE4D (human recombinant) can optionally be determined by IMAP Fluorescence Polarisation (FP) assay (IMAP Explorer kit, available from Molecular Devices Corporation, Sunnydale, Calif., USA; Molecular Devices code: R8062) in 384-well format.
# The IMAP FP assay is able to measure PDE activity in an homogenous, non-radioactive assay format. The FP assay uses the ability of immobilised trivalent metal cations, coated onto nanoparticles (tiny beads), to bind the phosphate group of Fl-AMP that is produced on the hydrolysis of fluorescein-labelled (Fl) cyclic adenosine mono-phosphate (Fl-cAMP) to the non-cyclic Fl-AMP form. […] Binding of Fl-AMP product to the beads (coated with the immobilised trivalent cations) slows the rotation of the bound Fl-AMP and leads to an increase in the fluorescence polarisation ratio of parallel to perpendicular light. Inhibition of the PDE reduces/inhibits this signal increase.
# The enzyme level is set by experimentation so that reaction is linear throughout the incubation. Fluorescein adenosine 3′,5′-cyclic phosphate (from Molecular Devices Corporation, Molecular Devices code: R7091) is added to give about 40 nM final concentration (final assay volume usually ca. 20-40 ul, suitably ca. 20 ul). Plates are mixed on an orbital shaker for 10 seconds and incubated at ambient temperature for 40 minutes. IMAP binding reagent (as described above, from Molecular Devices Corporation, Molecular Devices code: R7207) is added (60 ul of a 1 in 400 dilution in binding buffer of the kit stock solution) to terminate the assay. Plates are allowed to stand at ambient temperature for 1 hour. The Fluorescence Polarisation (FP) ratio of parallel to perpendicular light is measured using an Analyst™ plate reader (from Molecular Devices Corporation). […] Curves are analysed using ActivityBase and XLfit (ID Business Solutions Limited, 2 Ocean Court, Surrey Research Park, Guildford, Surrey GU2 7QB, United Kingdom). Results are expressed as plC50 values.
# T1 sequence (Q07343 1-564 isoform Q07343-2): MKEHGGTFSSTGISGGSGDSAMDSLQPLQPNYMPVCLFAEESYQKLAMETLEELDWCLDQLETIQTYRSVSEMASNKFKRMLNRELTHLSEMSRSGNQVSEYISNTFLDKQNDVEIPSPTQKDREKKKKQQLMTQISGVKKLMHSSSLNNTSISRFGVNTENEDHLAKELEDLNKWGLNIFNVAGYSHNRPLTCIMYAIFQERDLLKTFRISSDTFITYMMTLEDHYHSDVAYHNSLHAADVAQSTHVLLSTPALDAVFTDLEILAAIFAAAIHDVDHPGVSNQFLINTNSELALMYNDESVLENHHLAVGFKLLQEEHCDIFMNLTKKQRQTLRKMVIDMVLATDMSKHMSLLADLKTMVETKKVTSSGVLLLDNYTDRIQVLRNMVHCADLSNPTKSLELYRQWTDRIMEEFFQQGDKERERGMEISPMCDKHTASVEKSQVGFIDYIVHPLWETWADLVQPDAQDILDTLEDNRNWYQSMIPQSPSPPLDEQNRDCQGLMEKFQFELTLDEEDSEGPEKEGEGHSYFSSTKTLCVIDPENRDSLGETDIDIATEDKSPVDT
row,IC50 [pM],Structure (SMILES)
1,126 to 1000,"CCc1nc2c(cnn2CC)c(NC2CCOCC2)c1CNC(=O)c1ccc(C#N)nc1 [Example 325, 6-cyano-N-{[1,6-diethyl-4-(tetrahydro-2H-pyran-4-ylamino)-1H-pyrazolo[3,4-b]pyridin-5-yl]methyl}-3-pyridinecarboxamide]"
2,126 to 1000,"CCn1ncc2c(NC3CCOCC3)c(CNC(=O)c3ccc4c(=O)[nH][nH]c4c3)c(C)nc21 [Example 286, N-{[1-ethyl-6-methyl-4-(tetrahydro-2H-pyran-4-ylamino)-1H-pyrazolo[3,4-b]pyridin-5-yl]methyl}-3-oxo-2,3-dihydro-1H-indazole-6-carboxamide]"
3,10 to 100,"CCc1nc2c(cnn2CC)c(NC2CCN(C(N)=O)CC2)c1CNC(=O)c1cccc2c1OCC2 [Example 205, 4-[(5-{[(2,3-dihydro-1-benzofuran-7-ylcarbonyl)amino]methyl}-1,6-diethyl-1H-pyrazolo[3,4-b]pyridin-4-yl)amino]-1-piperidinecarboxamide]"
4,10 to 100,"CCc1nc2c(cnn2CC)c(NC2CCN(C(N)=O)CC2)c1CNC(=O)c1ccc(N2CCOCC2)cc1 [Example 207, 4-({1,6-diethyl-5-[({[4-(4-morpholinyl)phenyl]carbonyl}amino)methyl]-1H-pyrazolo[3,4-b]pyridin-4-yl}amino)-1-piperidinecarboxamide]"
5,126 to 1000,"CCn1ncc2c(NC3CCN(C(N)=O)CC3)c(CNC(=O)c3ccc(S(C)(=O)=O)cc3)c(C)nc21 [Example 259, 4-({1-ethyl-6-methyl-5-[({[4-(methylsulfonyl)phenyl]carbonyl}amino)methyl]-1H-pyrazolo[3,4-b]pyridin-4-yl}amino)-1-piperidinecarboxamide]"
6,10 to 100,"CCc1nc2c(cnn2CC)c(NC2CCOCC2)c1CNC(=O)c1ccc(NC(C)=O)cc1O [Example 251, 4-(acetylamino)-N-{[1,6-diethyl-4-(tetrahydro-2H-pyran-4-ylamino)-1H-pyrazolo[3,4-b]pyridin-5-yl]methyl}-2-hydroxybenzamide]"
7,10 to 100,"CCc1nc2c(cnn2CC)c(NC2CCOCC2)c1CNC(=O)c1nc2ccc(Cl)cc2nc1OC [Example 174, 6-chloro-N-{[1,6-diethyl-4-(tetrahydro-2H-pyran-4-ylamino)-1H-pyrazolo[3,4-b]pyridin-5-yl]methyl}-3-(methyloxy)-2-quinoxalinecarboxamide]"
8,126 to 1000,"CCn1ncc2c(NC3CCOCC3)c(CNC(=O)c3cnc(C)cn3)c(C)nc21 [Example 228, N-{[1-ethyl-6-methyl-4-(tetrahydro-2H-pyran-4-ylamino)-1H-pyrazolo[3,4-b]pyridin-5-yl]methyl}-5-methyl-2-pyrazinecarboxamide]"
9,126 to 1000,"CCc1nc2c(cnn2CC)c(NC2CCOCC2)c1CNC(=O)c1ccnn1C [Example 158, N-{[1,6-diethyl-4-(tetrahydro-2H-pyran-4-ylamino)-1H-pyrazolo[3,4-b]pyridin-5-yl]methyl}-1-methyl-1H-pyrazole-5-carboxamide]"
10,10 to 100,"CCc1nc2c(cnn2CC)c(NC2CCOCC2)c1CNC(=O)c1ccc(C2CCCC2)cc1 [Example 184, 4-cyclopentyl-N-{[1,6-diethyl-4-(tetrahydro-2H-pyran-4-ylamino)-1H-pyrazolo[3,4-b]pyridin-5-yl]methyl}benzamide]"
11,126 to 1000,"CCn1ncc2c(NC3CCOCC3)c(CNC(=O)c3ccc(C(F)(F)F)o3)c(C)nc21 [Example 324, N-{[1-ethyl-6-methyl-4-(tetrahydro-2H-pyran-4-ylamino)-1H-pyrazolo[3,4-b]pyridin-5-yl]methyl}-5-(trifluoromethyl)-2-furancarboxamide]"
12,10 to 100,"CCc1nc2c(cnn2CC)c(NC2CCOCC2)c1CNC(=O)c1ccc(NC(C)=O)c2c1OCC2 [Example 306, 4-(acetylamino)-N-{[1,6-diethyl-4-(tetrahydro-2H-pyran-4-ylamino)-1H-pyrazolo[3,4-b]pyridin-5-yl]methyl}-2,3-dihydro-1-benzofuran-7-carboxamide]"
13,126 to 1000,"CCc1nc2c(cnn2CC)c(NC2CCOCC2)c1CNC(=O)c1ccncc1F [Example 231, N-{[1,6-diethyl-4-(tetrahydro-2H-pyran-4-ylamino)-1H-pyrazolo[3,4-b]pyridin-5-yl]methyl}-3-fluoro-4-pyridinecarboxamide]"
14,10 to 100,"CCc1nc2c(cnn2CC)c(NC2CCOCC2)c1CNC(=O)c1ccc2c(c1)CCC2 [Example 176, N-{[1,6-diethyl-4-(tetrahydro-2H-pyran-4-ylamino)-1H-pyrazolo[3,4-b]pyridin-5-yl]methyl}-2,3-dihydro-1H-indene-5-carboxamide]"
15,10 to 100,"CCn1ncc2c(NC3CCN(C(N)=O)CC3)c(CNC(=O)c3ccc(N4CCOCC4)cc3)c(C)nc21 [Example 303, 4-({1-ethyl-6-methyl-5-[({[4-(4-morpholinyl)phenyl]-carbonyl}amino)methyl]-1H-pyrazolo[3,4-b]pyridin-4-yl}amino)-1-piperidine-carboxamide, Formate Salt]"
16,126 to 1000,"CCn1ncc2c(NC3CCOCC3)c(CNC(=O)c3cccc(N(C)C)c3)cnc21 [Example 120, 3-(dimethylamino)-N-{[1-ethyl-4-(tetrahydro-2H-pyran-4-ylamino)-1H-pyrazolo[3,4-b]pyridin-5-yl]methyl}benzamide]"
17,10 to 100,"CCn1ncc2c(NC3CCN(C(N)=O)CC3)c(CNC(=O)c3ccc(C(C)(C)C)cc3O)c(C)nc21 [Example 272, 4-({5-[({(4-(1,1-dimethylethyl)-2-hydroxyphenyl]carbonyl}amino)methyl}-1-ethyl-6-methyl-1H-pyrazolo[3,4-b]pyridin-4-yl)amino}-1-piperidinecarboxamide]"
18,126 to 1000,"CCc1nc2c(cnn2CC)c(NC2CCOCC2)c1CN1Cc2nnsc2C1=O [Example 344, 5-{[1,6-diethyl-4-(tetrahydro-2H-pyran-4-ylamino)-1H-pyrazolo[3,4-b]pyridin-5-yl]methyl}-4,5-dihydro-6H-pyrrolo[3,4-d][1,2,3]thiadiazol-6-one]"
19,10 to 100,"CCn1ncc2c(NC3CCN(C(N)=O)CC3)c(CNC(=O)c3ccc(NC(C)=O)cc3O)c(C)nc21 [Example 261, 4-({5-[({[4-(acetylamino)-2-hydroxyphenyl]carbonyl}amino)methyl]-1-ethyl-6-methyl-1H-pyrazolo[3,4-b]pyridin-4-yl}amino)-1-piperidinecarboxamide]"
20,126 to 1000,"CCc1nc2c(cnn2CC)c(NC2CCOCC2)c1CNC(=O)c1cncs1 [Example 234, N-{[1,6-diethyl-4-(tetrahydro-2H-pyran-4-ylamino)-1H-pyrazolo[3,4-b]pyridin-5-yl]methyl}-1,3-thiazole-5-carboxamide]"
21,10 to 100,"CCc1nc2c(cnn2CC)c(NC2CCN(C(N)=O)CC2)c1CNC(=O)c1ccccc1O [Example 211, 4-{[1,6-diethyl-5-({[(2-hydroxyphenyl)carbonyl]amino}methyl)-1H-pyrazolo[3,4-b]pyridin-4-yl]amino}-1-piperidinecarboxamide]"
22,126 to 1000,"CCn1ncc2c(NC3CCOCC3)c(CNC(=O)c3coc(C)n3)c(C)nc21 [Example 318, N-{[1-ethyl-6-methyl-4-(tetrahydro-2H-pyran-4-ylamino)-1H-pyrazolo[3,4-b]pyridin-5-yl]methyl}-2-methyl-1,3-oxazole-4-carboxamide]"
23,10 to 100,"CCc1nc2c(cnn2CC)c(NC2CCOCC2)c1CNC(=O)c1cc(S(=O)(=O)NCC2CC2)ccc1OC [Example 183, 5-{[(cyclopropylmethyl)amino]sulfonyl}-N-{[1,6-diethyl-4-(tetrahydro-2H-pyran-4-ylamino)-1H-pyrazolo[3,4-b]pyridin-5-yl]methyl}-2-(methyloxy)benzamide]"
24,10 to 100,"CCn1ncc2c(NC3CCOCC3)c(CNC(=O)c3ccc(N4CCCC4=O)cc3)c(C)nc21 [Example 288, N-{[1-ethyl-6-methyl-4-(tetrahydro-2H-pyran-4-ylamino)-1H-pyrazolo[3,4-b]pyridin-5-yl]methyl}-4-(2-oxo-1-pyrrolidinyl)benzamide]"
